Data set [1] relates to Schoenoplectiella juncoides. Briefly: Herbicidal activity against Schoenoplectiella juncoides under greenhouse condition compound treated at 0.5 leaf stage measured after 14 to 20 days. The class given is functional.
Data set [2] has as its system Oryza sativa. Briefly: Phytotoxicity against Oryza sativa cv. Kinuhikari (rice) planted at 3 cm depth measured after 20 to 25 days. Format: organism-based. Conditions: in vivo.
Data set [3] deals with Echinochloa oryzicola. Briefly: Herbicidal activity against Echinochloa oryzicola under greenhouse condition compound treated at emergence stage measured after 14 to 20 days. Format: functional.
Data set [4] deals with Echinochloa oryzicola. Briefly: Herbicidal activity against Echinochloa oryzicola under greenhouse condition compound treated at 2.5 leaf stage measured after 14 to 20 days. Format: functional.
For data set [5], the system named is Schoenoplectiella juncoides. As to the kind of experiment: Herbicidal activity against Schoenoplectiella juncoides compound treated at 0.5-leaf stage measured after 26 days by outdoor concrete pot test. The class given is functional.
Data set [6] concerns Oryza sativa. As to the kind of experiment: Phytotoxicity against Oryza sativa cv. Kinuhikari (rice) planted at 3 cm depth measured after 26 days. The class given is organism-based. The following applies: in vivo, 624 h.
The subject of data set [7] is Echinochloa oryzicola. As to the kind of experiment: Herbicidal activity against Echinochloa oryzicola compound treated at emergence stage measured after 26 days by outdoor concrete pot test. Format: functional.
The subject of data set [8] is Elatine triandra. As to the kind of experiment: Herbicidal activity against Elatine triandra compound treated at 1 to 2.2-leaf stage measured after 26 days by outdoor concrete pot test. Format: functional.
In data set [9] the test system is Pontederia vaginalis. As to the kind of experiment: Herbicidal activity against Monochoria vaginalis compound treated at 1.5-leaf stage measured after 26 days by outdoor concrete pot test. Format: functional.
In data set [10] the test system is Echinochloa oryzicola. As to the kind of experiment: Herbicidal activity against Echinochloa oryzicola compound treated at 2.5-leaf stage measured after 26 days by outdoor concrete pot test. The class given is functional.
For data set [11], the system named is Lindernia procumbens. As to the kind of experiment: Herbicidal activity against Lindernia procumbens compound treated at 1 to 2.2-leaf stage measured after 26 days by outdoor concrete pot test. Format: functional.
For data set [12], the system named is Rotala indica. As to the kind of experiment: Herbicidal activity against Rotala indica compound treated at 1 to 2.2-leaf stage measured after 26 days by outdoor concrete pot test. The class given is functional.
Data set [13] deals with Lindernia procumbens. As to the kind of experiment: Herbicidal activity against Lindernia procumbens at 300 g a.i/ha treated at 2.3-leaf stage measured after 26 days by outdoor concrete pot test. Format: functional.
Data set [14] concerns Lindernia procumbens. As to the kind of experiment: Herbicidal activity against Lindernia procumbens at 300 g a.i/ha treated at 1.6-leaf stage measured after 26 days by outdoor concrete pot test. The class given is functional.
Data set [15] deals with Schoenoplectiella juncoides. As to the kind of experiment: Herbicidal activity against Schoenoplectiella juncoides at 300 g a.i/ha treated at 2.3-leaf stage measured after 26 days by outdoor concrete pot test. Format: functional.
The test system of data set [16] is Pontederia vaginalis. As to the kind of experiment: Herbicidal activity against Monochoria vaginalis at 300 g a.i/ha treated at 1.6-leaf stage measured after 26 days by outdoor concrete pot test. Format: functional.
The subject of data set [17] is Rotala indica. As to the kind of experiment: Herbicidal activity against Rotala indica at 300 g a.i/ha treated at 1.6-leaf stage measured after 26 days by outdoor concrete pot test. The class given is functional.
Data set [18] relates to Elatine triandra. Briefly: Herbicidal activity against Elatine triandra at 300 g a.i/ha treated at 2.3-leaf stage measured after 26 days by outdoor concrete pot test. Format: functional.
Data set [19] concerns Schoenoplectiella juncoides. As to the kind of experiment: Herbicidal activity against Schoenoplectiella juncoides at 300 g a.i/ha treated at 1.6-leaf stage measured after 26 days by outdoor concrete pot test. Format: functional.
In data set [20] the test system is Elatine triandra. Briefly: Herbicidal activity against Elatine triandra at 300 g a.i/ha treated at 1.6-leaf stage measured after 26 days by outdoor concrete pot test. Format: functional.
Data set [21] deals with Rotala indica. As to the kind of experiment: Herbicidal activity against Rotala indica at 300 g a.i/ha treated at 2.3-leaf stage measured after 26 days by outdoor concrete pot test. The class given is functional.
In data set [22] the test system is Oryza sativa. As to the kind of experiment: Phytotoxicity against Oryza sativa cv. Kinuhikari (rice) at 300 g a.i/ha treated at 2.3-leaf stage measured after 26 days by outdoor concrete pot test. Format: organism-based. The following applies: in vivo, other, 624 h.
In data set [23] the test system is Echinochloa oryzicola. As to the kind of experiment: Herbicidal activity against Echinochloa oryzicola at 300 g a.i/ha treated at 2.3-leaf stage measured after 26 days by outdoor concrete pot test. The class given is functional.
Data set [24] deals with Echinochloa oryzicola. As to the kind of experiment: Herbicidal activity against Echinochloa oryzicola at 300 g a.i/ha treated at 1.6-leaf stage measured after 26 days by outdoor concrete pot test. The class given is functional.
The test system of data set [25] is Pontederia vaginalis. Briefly: Herbicidal activity against Monochoria vaginalis at 300 g a.i/ha treated at 2.3-leaf stage measured after 26 days by outdoor concrete pot test. Format: functional.

For `CN(C)C(=O)OC(c1cnccc1C#N)c1cccc2ccccc12` (stereo not given), the ED80 in data set [1] worked out at 250 gAi/ha; with Echinochloa oryzicola [3], 63 gAi/ha; in the data set on Echinochloa oryzicola [4], 250 gAi/ha. Besides, the ED20 with Oryza sativa [2] is listed as above 1000 gAi/ha.

Take `COc1ccncc1C(OC(=O)N(C)C)c1cccc2ccccc12` (stereo not given): the ED80 (in data set [1]; in the data set with Echinochloa oryzicola [3]; in the data set with Echinochloa oryzicola [4]) was above 1000 gAi/ha in each case. This molecule gave an ED20 in the data set on Oryza sativa [2] above 2000 gAi/ha.

Turning to `Cc1ccncc1C(OC(=O)N(C)C)c1cccc2ccccc12` (stereo not given), the ED80 in data set [1] is above 1000 gAi/ha; with Echinochloa oryzicola [3], 500 gAi/ha. Besides, the ED20 in the data set with Oryza sativa [2] worked out at 2000 gAi/ha.

On to `CN(C)C(=O)OC(c1cnccc1Cl)c1cccc2ccccc12` (stereo not given), for which the ED80 in data set [1] is on record as 63 gAi/ha; in the data set with Echinochloa oryzicola [3], 63 gAi/ha; in the data set with Echinochloa oryzicola [4], above 500 gAi/ha. In addition, the ED20 in the data set on Oryza sativa [2] worked out at 1000 gAi/ha.

For the molecule `CN(C)C(=O)OC(c1cnccc1Br)c1cccc2ccccc12` (stereo not given), the ED80 in data set [1] is 250 gAi/ha; in the data set on Echinochloa oryzicola [3], 31 gAi/ha; in the data set on Echinochloa oryzicola [4] it was 250 gAi/ha. Also, the ED20 in the data set with Oryza sativa [2] is given as 2000 gAi/ha.

As for `O=C(OC(c1cnccc1C(F)(F)F)c1cccc2ccccc12)n1ccnc1` (stereo not given), the ED80 is above 1000 gAi/ha in data set [1] and above 500 gAi/ha in the data set with Echinochloa oryzicola [3].

With `CCN(CC)C(=O)OC(c1cnccc1C(F)(F)F)c1cccc2ccccc12` (stereo not given), the ED80 in [1] is on record as 1000 gAi/ha; in the data set on Echinochloa oryzicola [3], 31 gAi/ha; with Echinochloa oryzicola [4] it was 250 gAi/ha. The ED20 in the data set on Oryza sativa [2] is recorded as above 2000 gAi/ha.

Turning to `CNC(=O)OC(c1cnccc1C(F)(F)F)c1cccc2ccccc12` (stereo not given), the ED80 in data set [1] came out at 500 gAi/ha; in the data set with Echinochloa oryzicola [3], 63 gAi/ha; with Echinochloa oryzicola [4] it was 250 gAi/ha. In the data set on Oryza sativa [2], the ED20 was 2000 gAi/ha.

`CN(C)C(=O)OC(c1cnccc1C(F)(F)F)c1ccnc2ccccc12` (stereo not given): the ED80 in [1] is 500 gAi/ha; in the data set on Echinochloa oryzicola [3] it was 125 gAi/ha. This molecule also had an ED20 with Oryza sativa [2] of 2000 gAi/ha.

Take `CN(C)C(=O)OC(c1cnccc1C(F)(F)F)c1ccc2c3c(cccc13)CC2` (stereo not given): the ED80 is on record as above 1000 gAi/ha in data set [1], 500 gAi/ha with Echinochloa oryzicola [3] and above 500 gAi/ha in the data set with Echinochloa oryzicola [4]. The molecule also returned an ED20 in the data set on Oryza sativa [2] above 2000 gAi/ha.

For `CN(C)C(=O)OC(c1cnccc1C(F)(F)F)c1c(Cl)ccc2c1OCO2` (stereo not given), the ED80 is reported as 500 gAi/ha in data set [1], 63 gAi/ha with Echinochloa oryzicola [3] and 500 gAi/ha in the data set with Echinochloa oryzicola [4]. This molecule registered an ED20 in the data set on Oryza sativa [2] above 2000 gAi/ha.

Regarding `CN(C)C(=O)OC(c1cnccc1C(F)(F)F)c1cccc2c1OCO2` (stereo not given), the ED80 in data set [1] was 250 gAi/ha; in the data set with Echinochloa oryzicola [3] it was 63 gAi/ha. Moreover, in the data set on Oryza sativa [2], the ED20 came out at 500 gAi/ha.

As to `CN(C)C(=O)OC(c1cnccc1C(F)(F)F)c1cnccc1C(F)(F)F`, the ED80 (in [1]; in the data set on Echinochloa oryzicola [3]) was 63 gAi/ha in each case. The same molecule gave an ED20 in the data set on Oryza sativa [2] below 250 gAi/ha.

For the molecule `CN(C)C(=O)OC(c1cnccc1C(F)(F)F)c1cccc2ccccc12` (single isomer, unassigned; (+)), the values for the ED80 (in data set [5]; with Echinochloa oryzicola [7]) were above 500 gAi/ha and 125 gAi/ha, respectively. This molecule also showed an ED20 with Oryza sativa [6] of 1000 gAi/ha.

As for `CN(C)C(=O)OC(c1cnccc1C(F)(F)F)c1cccc2ccccc12` (single isomer, unassigned; (-)), the ED80 in the data set on Elatine triandra [8] is below 63 gAi/ha; in the data set with Pontederia vaginalis [9], below 100 gAi/ha; in the data set on Echinochloa oryzicola [10] it was below 63 gAi/ha; in data set [5], 125 gAi/ha; in the data set with Lindernia procumbens [11] it was below 63 gAi/ha; in the data set on Echinochloa oryzicola [7] it was below 31 gAi/ha. In the data set on Rotala indica [12], this molecule gave an ED80 below 63 gAi/ha. This molecule also gave an ED20 in the data set with Oryza sativa [6] of 500 gAi/ha.

Turning to `CCN(CC)C(=O)n1cnc(S(=O)(=O)c2c(C)cc(C)cc2C)n1` [CAFENSTROLE], the Efficacy worked out at 99% with Lindernia procumbens [13]; 100% in the data set with Lindernia procumbens [14]; 0% in data set [15]; 50% in the data set on Pontederia vaginalis [16]; 100% in the data set with Rotala indica [17]; 99% with Elatine triandra [18]. The Efficacy in data set [19] came to 0%; in the data set on Elatine triandra [20] it was 100%; with Rotala indica [21], 99%; with Oryza sativa [22] it was 0%; in the data set on Echinochloa oryzicola [23], 95%; in the data set on Echinochloa oryzicola [24], 100%. The same molecule showed an Efficacy in the data set on Pontederia vaginalis [25] of 0%.

The values are drawn from ChEMBL document CHEMBL3045041, “Synthesis of novel aryl(4-substituted pyridin-3-yl)methyl carbamates and their herbicidal activity” (J Pestic Sci, 2012).
